According to ChEMBL document CHEMBL1146430, “Alternatamides A-D: new bromotryptamine peptide antibiotics from the Atlantic marine bryozoan Amathia alternata” (1997):

Assays:
Type in all cases: functional
[1] = tested on: Staphylococcus haemolyticus; experiment: Antibacterial activity against Staphylococcus haemolyticus
Bacillus subtilis = experiment: Antibacterial activity against Bacillus subtilis
Enterococcus faecalis = experiment: Antibacterial activity against Enterococcus faecalis
Staphylococcus aureus = experiment: Antibacterial activity against Staphylococcus aureus
[2] = tested on: Staphylococcus epidermidis; experiment: Antibacterial activity against Staphylococcus epidermidis
Enterococcus faecium = experiment: Antibacterial activity against Enterococcus faecium
Streptococcus pyogenes = experiment: Antibacterial activity against Streptococcus pyogenes

Measured: MIC

CN[C@@H](CC(C)C)C(=O)NCCc1c(Br)n(C)c2cc(Br)c(Br)cc12 [ALTEMATAMIDE A]
4 µg/mL: all assays above

CN[C@@H](CC(C)C)C(=O)NCCc1c(Br)[nH]c2ccc(Br)cc12 [ALTEMATAMIDE C]
4 µg/mL: all assays above

CN[C@@H](CC(C)C)C(=O)NCCc1c(Br)[nH]c2cc(Br)c(Br)cc12 [ALTEMATAMIDE B]
4 µg/mL: all assays above
